Test results from ChEMBL document CHEMBL1128054, “The synthesis of pyrazolo[4,3-c]- and imidazo[4,5-c]-Aryl[e]fused pyridines as structural analogues of 4-aminonicotinoates” (Bioorg Med Chem Lett, 1995).
pIC50: −log10 of the molar value.

biological target: GABA-A receptor; anion channel; experiment: Inhibition of [35S][…] (TBPS) binding to Gamma-aminobutyric acid receptor; format: protein-complex assay

Row | Compound | pIC50
1 | CCCOC(=O)c1c(C)nc2c(c1N)c1ccccc1n2C | 5.70
2 | Cc1nc2sc3c(c2c2ncn(CCC4CC4)c12)CCC1(C3)OCCO1 | 5.20
3 | C#CCOC(=O)c1c(C)nc2sc3c(c2c1N)CCC1(C3)OCCO1 | 6.11
4 | Cc1nc2sc3c(c2c(N)c1C(=O)OCc1ccccc1)CCC1(C3)OCCO1 | 5.85
5 | Cc1nc2sc3c(c2c(N)c1C(=O)OCCC1CC1)CCC1(C3)OCCO1 | 6.62
6 | Cc1nc2sc3c(c2c2ncn(CC4CC4)c12)CCC1(C3)OCCO1 | 5.05
7 | Cc1[nH]c2sc3c(c2c2ncnc1-2)CCC1(C3)OCCO1 | < 4.00
8 | CCOC(=O)c1c(C)nc2c(c1N)c1ccccc1n2C | 5.70
9 | COC(=O)c1c(C)nc2c(c1N)c1ccccc1n2C | 5.70
10 | Cc1nc2sc3c(c2c2ncn(CCc4ccc(Cl)cc4)c12)CCC1(C3)OCCO1 | 5.57
11 | Cc1nc2sc3c(c2c2nn(Cc4ccccc4)c(O)c12)CCC1(C3)OCCO1 | < 4.00
12 | Cc1nc2sc3c(c2c(N)c1C(=O)OCC1CC1)CCC1(C3)OCCO1 | 6.06
13 | Cc1nc2sc3c(c2c(N)c1C(=O)OCc1ccc(Cl)cc1)CCC1(C3)OCCO1 | 6.51
14 | CCOC(=O)c1c(C)nc2sc3c(c2c1N)CCC1(C3)OCCO1 | 4.79
15 | C#CCCOC(=O)c1c(C)nc2sc3c(c2c1N)CCC1(C3)OCCO1 | 6.49
